Drawing on US20120252853A1, “Positive allosteric modulators of nicotinic acetylcholine receptor” (H. Lundbeck A/S, priority 2011, published 2012), this text covers EC50 for 35 compounds.

Bounds are passed on as bounds.

human α7 receptor, sequence (P36544 23-502): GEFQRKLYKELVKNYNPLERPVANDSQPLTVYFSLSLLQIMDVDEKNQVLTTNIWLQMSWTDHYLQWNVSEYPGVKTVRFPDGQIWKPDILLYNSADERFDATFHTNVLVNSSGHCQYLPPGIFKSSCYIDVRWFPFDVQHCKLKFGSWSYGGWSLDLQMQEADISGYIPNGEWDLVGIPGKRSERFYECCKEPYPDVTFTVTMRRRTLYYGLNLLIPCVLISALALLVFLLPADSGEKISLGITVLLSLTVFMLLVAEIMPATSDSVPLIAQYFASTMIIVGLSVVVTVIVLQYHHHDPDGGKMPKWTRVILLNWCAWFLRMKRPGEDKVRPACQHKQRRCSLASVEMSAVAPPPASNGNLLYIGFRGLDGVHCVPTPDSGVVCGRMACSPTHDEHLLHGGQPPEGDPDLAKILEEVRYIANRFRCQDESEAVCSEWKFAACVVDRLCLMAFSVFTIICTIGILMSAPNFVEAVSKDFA

The assay concerns the target human α7 receptor (Homo sapiens, UniProt P36544). Description: α7 NNR flux assay (FDSS Ca assay). The following applies: positive allosteric modulation; rat GH4C1 cell line stably expressing human α7; acetylcholine 20 μM; % modulation relative to PNU-120596 set to 100%. The assay is classed as cell-based. How it is done:
In this version of the assay, the human α7 receptor is stably expressed in the rat GH4C1 cell line. The assay was used to identify positive allosteric modulators (PAMs) of the α7 receptor. Activation of the channel was measured by loading cells with the calcium-sensitive fluorescent dye Calcium-4 (Assay kit from Molecular Devices), and then measuring real-time changes in fluorescence upon treatment with test compounds.
The cell line ChanClone GH4C1-nAChRalpha7 from Genionics was seeded from frozen stock in 384-well plates in culture media 2-3 days before experiment to form an approximately 80% confluent layer on the day of experiment.
The cell culture were split into “22.5 cm×22.5 cm”-plates with approximately 100×10^3 cells/cm^2. After four days incubation in a humidified incubator at 37° C. and 5% CO2, it had grown to an 80-90% confluent layer, and the cells were harvested.
Two or three days before the experiment the cells were seeded in 384 well plates from Greiner bio-one (781946, CELLCOAT, Poly-D-Lysine, black, μClear).
The cells were seeded in 384 well plates with 30 μL/well (30000 cells/well) while stirring the cell suspension or otherwise preventing the cells from precipitating. The plates were incubated at room temperature for 30-45 minutes. The plates were placed in incubator for two days (37° C. and 5% CO2).
The loading buffer was 5% v/v Calcium-4 Kit and 2.5 mM Probenecid in assay buffer.
Culture media were removed from the cell plates and 20 μL loading buffer was added in each well. The cell plates were placed in trays and incubated 90 minutes in the incubator (37° C.). Thereafter the plates were incubated 30 minutes at room temperature, still protected from light. Now the cell plates were ready to run in the Functional Drug Screening System (FDSS) The assay buffer was HBSS with 20 mM HEPES, pH 7.4 and 3 mM CaCl2.
200 nL 10 mM compound solution in DMSO was diluted in 50 μL assay buffer. The final test concentrations in the cell plates were 20-10-5-2.5-1.25-0.625-0.312-0.156-0.078-0.039 μM. Assay buffer and 3 μM PNU-120596 were used for control:
The agonist acetylcholine was added to a final concentration of 20 μM (˜EC100). In the FDSS7000 the Ex480-Em540 was measured with 1 second intervals. The baseline was made of 5 frames before addition of test compounds, and 95 frames more were made before addition of acetylcholine. The measurement stopped 30 frames after the 2nd addition. Raw data for each well were collected as “the maximum fluorescence count” in the interval 100-131 seconds and as “the average fluorescence count” in the interval 96-100 seconds. The positive allosteric modulation in the 2nd addition was the enhancement of agonist response with test compound compared to agonist alone.
Results were calculated as % modulation of test compound compared to the reference PNU-120596 set to 100%.
For `Cc1cc(C(=O)N[C@@H](c2ccc3[nH]c(C)cc3c2)C(F)(F)F)on1` [Compound 45, 3-methyl-N-[(1S)-2,2,2-trifluoro-1-(2-methyl-1H-indol-5-yl)ethyl]isoxazole-5-carboxamide], it took 1.5 µM to reach a half-maximal effect (EC50).

As for `COCCn1cc(C(=O)N[C@H](C)c2ccc3[nH]c(C)cc3c2)cn1` [Compound 46, 1(2-methoxyethyl)-N-[(1R)-1-(2-methyl-1H-indol-5-yl)ethyl]pyrazole-4-carboxamide], the 50% effective concentration (EC50) – broadly, the concentration giving half of the maximal effect – is 3.5 µM.

In the case of `Cc1cc2cc([C@@H](C)NC(=O)c3cnn(CCF)c3)ccc2[nH]1` [Compound 48, 1-(2-fluoroethyl)-N-[(1R)-1-(2-methyl-1H-indol-5-yl)ethyl]pyrazole-4-carboxamide], a half-maximal response (EC50) required 1.7 µM.

The compound `Cc1cc2cc(CNC(=O)c3cnn(C4COC4)c3)ccc2[nH]1` [Compound 49, N-[(2-methyl-1H-indol-5-yl)methyl]-1-(oxetan-3-yl)pyrazole-4-carboxamide] displayed an EC50 of 6.5 µM. Compared with the last compound, the EC50 is about 3.8-fold higher.

Turning to `Cc1cc2cc(CNC(=O)c3cnc(C)o3)ccc2[nH]1` [Compound 50, 2-methyl-N-[(2-methyl-1H-indol-5-yl)methyl]oxazole-5-carboxamide], it took 8.5 µM to reach a half-maximal effect (EC50).

As to `Cc1cc2cc(CNC(=O)c3cnn(C4CCOC4)c3)ccc2[nH]1` (centres unmarked) [Compound 51, N-[(2-methyl-1H-indol-5-yl)methyl]-1-tetrahydrofuran-3-yl-pyrazole-4-carboxamide], the EC50 was 6.1 µM.

Turning to `Cc1cc2cc([C@@H](C)NC(=O)c3cnn(C4COC4)c3)ccc2[nH]1` [Compound 52, N-[(1R)-1-(2-methyl-1H-indol-5-yl)ethyl]-1-(oxetan-3-yl)pyrazole-4-carboxamide], the EC50 is 5.3 µM.

`Cc1cc(C(=O)N[C@H](C)c2ccc3[nH]c(C)cc3c2F)on1` [Compound 53, N-[(1R)-1-(4-fluoro-2-methyl-1H-indol-5-yl)ethyl]-3-methyl-isoxazole-5-carboxamide] had a concentration for a half-maximal effect (EC50) of 6 µM.

Regarding `Cc1cc(C(=O)N[C@@H](C)c2ccc3[nH]c(C)cc3c2F)on1` [Compound 54, N-[(1S)-1-(4-fluoro-2-methyl-1H-indol-5-yl)ethyl]-3-methyl-isoxazole-5-carboxamide], the concentration for a half-maximal effect (EC50) is greater than 20 µM.

Compound `Cc1cc(C(=O)NCc2ccc3[nH]c(C)cc3c2)n(C)n1` [Compound 55, 2,5-dimethyl-N-[(2-methyl-1H-indol-5-yl)methyl]pyrazole-3-carboxamide] gave a concentration for a half-maximal effect (EC50) of 7.3 µM.

For the compound `Cc1cc2cc(CNC(=O)c3onc(C)c3Cl)ccc2[nH]1` [Compound 56, 4-chloro-3-methyl-N-[(2-methyl-1H-indol-5-yl)methyl]isoxazole-5-carboxamide], the EC50 was 4.3 µM.

Consider `Cc1cc2cc(CNC(=O)c3cccn3C)ccc2[nH]1` [Compound 57, 1-methyl-N-[(2-methyl-1H-indol-5-yl)methyl]pyrrole-2-carboxamide], for which a half-maximal effect (EC50) was put at 3.87 µM. This EC50 and that of the compound before are within 1.5-fold of each other.

In turn, `Cc1cc(C(=O)NCc2ccc3[nH]ccc3c2)on1` [Compound 58, N-(1H-indol-5-ylmethyl)-3-methyl-isoxazole-5-carboxamide] registered a concentration giving a half-maximal response (EC50) of 8.57 µM.

`Cc1c(C(=O)NCc2ccc3[nH]ccc3c2)sc(=O)n1C` [Compound 59, N-(1H-indol-5-ylmethyl)-3,4-dimethyl-2-oxo-thiazole-5-carboxamide] displayed an EC50 of 7.7 µM.

As for `Cc1cc2cc(CNC(=O)c3sc(=O)n(C)c3C)ccc2[nH]1` [Compound 60, 3,4-dimethyl-N-[(2-methyl-1H-indol-5-yl)methyl]-2-oxo-thiazole-5-carboxamide], the EC50 was found to be 4.1 µM.

On to `Cc1cc(C(=O)N[C@@H](C)c2ccc3[nH]c(C)cc3c2)on1` [Compound 62, 3-methyl-N-[(1S)-1-(2-methyl-1H-indol-5-yl)ethyl]isoxazole-5-carboxamide], for which the 50% effective concentration (EC50) was found to be 9.1 µM. This EC50 lies about 2.2-fold higher than the previous one.

The compound `Cc1cc(C(=O)NCc2ccc3c(ccn3C(F)F)c2)on1` [Compound 63, N-[[1-(difluoromethyl)indol-5-yl]methyl]-3-methyl-isoxazole-5-carboxamide] came in with a concentration for a half-maximal effect (EC50) of 5.8 µM.

On to `Cc1cc(C(=O)NCc2ccc3c(c2)cc(C)n3C(F)F)on1` [Compound 64], for which a half-maximal effect (EC50) was put at 9.3 µM.

In turn, `O=C(NCc1ccc2c(ccn2C(F)F)c1)c1cnn(CC(F)(F)F)c1` [Compound 68, N-[[1-(difluoromethyl)indol-5-yl]methyl]-1-(2,2,2-trifluoroethyl)pyrazole-4-carboxamide] gave an EC50 of 2.1 µM. Compared with the last compound, the EC50 is about 4.4-fold lower.

Consider `Cc1cc2cc(CNC(=O)c3cnn(CC(F)(F)F)c3)ccc2n1C(F)F` [Compound 69, N-[[1-(difluoromethyl)-2-methyl-indol-5-yl]methyl]-1-(2,2,2-trifluoroethyl)pyrazole-4-carboxamide], for which a half-maximal response (EC50) required 4.2 µM.

On to `Cc1cc2cc(CNC(=O)c3cc(CC(F)(F)F)no3)ccc2n1C(F)F` [Compound 70, N-[[1-(difluoromethyl)-2-methyl-indol-5-yl]methyl]-3-(2,2,2-trifluoroethyl)isoxazole-5-carboxamide], for which the concentration for a half-maximal effect (EC50) is 9.4 µM.

`Cc1cc2cc(CNC(=O)c3cnn(C(C)C)c3)ccc2[nH]1` [Compound 71, 1-isopropyl-N-[(2-methyl-1H-indol-5-yl)methyl]pyrazole-4-carboxamide] came in with a concentration giving a half-maximal response (EC50) of 2.9 µM. This EC50 is about 3.2-fold lower than that of the compound before.

`O=C(NCc1ccc2c(ccn2C(F)F)c1)c1cc(CC(F)(F)F)no1` [Compound 72, N-[[1-(difluoromethyl)indol-5-yl]methyl]-3-(2,2,2-trifluoroethyl)isoxazole-5-carboxamide] yielded an EC50 of 7.6 µM.

The compound `[2H]C([2H])([2H])c1cc2cc(CNC(=O)c3cc(C)no3)ccc2[nH]1` [Compound 73, 3-methyl-N-[[2-(trideuteriomethyl)-1H-indol-5-yl]methyl]isoxazole-5-carboxamide] yielded a half-maximal effective concentration (EC50) of 2.8 µM.

Consider `Cc1cc2cc(CNC(=O)c3nnc(C)o3)ccc2[nH]1` [Compound 74, 5-methyl-N-[(2-methyl-1H-indol-5-yl)methyl]-1,3,4-oxadiazole-2-carboxamide], for which the midpoint of the response, the EC50, lay at 6 µM.

As to `CCc1cc(C(=O)NCc2ccc3[nH]c(C)cc3c2)no1` [Compound 75, 5-ethyl-N-[(2-methyl-1H-indol-5-yl)methyl]isoxazole-3-carboxamide], the EC50 was 2.1 µM.

On to `Cc1cc2cc(CNC(=O)c3coc(C)n3)ccc2[nH]1` [Compound 76, 2-methyl-N-[(2-methyl-1H-indol-5-yl)methyl]oxazole-4-carboxamide], for which the response was half-maximal at 8.2 µM (EC50).

For the compound `Cc1cc2cc(CNC(=O)c3noc(C)n3)ccc2[nH]1` [Compound 77, 5-methyl-N-[(2-methyl-1H-indol-5-yl)methyl]-1,2,4-oxadiazole-3-carboxamide], the response was half-maximal at 10.5 µM (EC50). This EC50 and that of the compound before are within 1.5-fold of each other.

Compound `[2H]C([2H])([2H])c1cc2cc(CNC(=O)c3cc(CC(F)(F)F)no3)ccc2[nH]1` [Compound 78, N-[[2-(trideuteriomethyl)-1H-indol-5-yl]methyl]-3-(2,2,2-trifluoroethyl)isoxazole-5-carboxamide] gave an EC50 of 0.61 µM. This EC50 is about 17-fold lower than that of the compound before.

On to `Cc1cc2cc(CNC(=O)c3cc(CC(F)(F)F)no3)ccc2[nH]1` [Compound 79], for which the concentration for a half-maximal effect (EC50) was 0.56 µM.

`Cc1cc(C(=O)NCc2ccc3c(ccn3C(F)(F)F)c2)on1` [Compound 80, 3-methyl-N-[[1-(trifluoromethyl)indol-5-yl]methyl]isoxazole-5-carboxamide] displayed an EC50 of 5.7 µM.

Take `O=C(NCc1ccc2c(ccn2C(F)(F)F)c1)c1cnn(CC(F)(F)F)c1` [Compound 81, 1-(2,2,2-trifluoroethyl)-N-[[1-(trifluoromethyl)indol-5-yl]methyl]pyrazole-4-carboxamide]: the response was half-maximal at 6 µM (EC50). The EC50 values of the last two compounds are within 1.5-fold of each other.

`[2H]C([2H])([2H])c1cc2cc(CNC(=O)c3cnn(CC(F)(F)F)c3)ccc2[nH]1` [Compound 82] returned a half-maximal effective concentration (EC50) of 0.98 µM.

In the case of `Cc1cc2cc(CNC(=O)c3cnn(CC(F)(F)F)c3)ccc2n1C(F)(F)F` [Compound 83, N-[[2-methyl-1-(trifluoromethyl)indol-5-yl]methyl]-1-(2,2,2-trifluromethyl)pyrazole-4-carboxamide], the EC50 turned out to be 11 µM. Compared with the last compound, the EC50 is about 11-fold higher.

For the compound `Cc1cc(C(=O)NCc2ccc3c(c2)cc(C)n3C(F)(F)F)on1` [Compound 84, 3-methyl-N-[[2-methyl-1-(trifluoromethyl)indol-5-yl]methyl]isoxazole-5-carboxamide], the midpoint of the response, the EC50, lay at 6 µM. Compared with the last compound, the EC50 is about 1.8-fold lower.
